Converted amounts (≈) assume the structure as drawn.
Tests used:
human sEH [1] = target: T1, human sEH (Homo sapiens, UniProt P34913); experiment: sEH inhibition, fluorescent assay with cyano(6-methoxy-naphthalen-2-yl)methyl trans-[(3-phenyloxiran-2-yl)methyl]carbonate as substrate; format: biochemical; settings: for IC50: Table 5, fluorescent-based assay, 0.96 nM human sEH, pH 7.0, [S] = 5 μM, read-out: Human sEH IC50; for fold improvement in inhibition of the human enzyme: compared with 687 (compound 4)
T1 construct: made in house
T1 sequence (P34913 1-555): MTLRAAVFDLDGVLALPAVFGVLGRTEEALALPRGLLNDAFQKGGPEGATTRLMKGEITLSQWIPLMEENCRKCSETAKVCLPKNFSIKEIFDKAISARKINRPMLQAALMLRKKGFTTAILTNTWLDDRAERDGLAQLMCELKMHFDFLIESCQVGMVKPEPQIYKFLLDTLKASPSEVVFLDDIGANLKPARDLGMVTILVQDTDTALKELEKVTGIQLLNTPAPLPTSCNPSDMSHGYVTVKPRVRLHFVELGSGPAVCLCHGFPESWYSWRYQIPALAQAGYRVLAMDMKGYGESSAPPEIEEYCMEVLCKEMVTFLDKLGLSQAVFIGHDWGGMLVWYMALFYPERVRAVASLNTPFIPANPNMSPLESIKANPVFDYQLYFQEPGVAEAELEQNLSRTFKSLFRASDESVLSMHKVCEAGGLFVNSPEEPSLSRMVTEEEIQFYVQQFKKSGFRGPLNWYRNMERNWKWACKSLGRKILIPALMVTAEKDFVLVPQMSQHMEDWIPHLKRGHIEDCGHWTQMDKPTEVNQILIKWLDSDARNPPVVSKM
Method in brief: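 Affinity-purified recombinant human sEH from baculovirus expression; activity followed as formation of fluorescent 6-methoxy-2-naphthaldehyde from the carbonate substrate. IC50 by regression of at least five points, two on each side of the IC50 in the linear region, from at least three separate runs, each in triplicate.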

Solubility in oil = format: physicochemical; settings: Table 5
human sEH [2] = target: T1, human sEH; experiment: sEH inhibition, spectrometric assay with racemic 4-nitrophenyl-trans-2,3-epoxy-3-phenylpropyl carbonate as substrate; format: biochemical; settings: Table 5; spectrometric-based assay; read-out: Human sEH IC50
Protocol: (§1) Recombinant mouse sEH and human sEH were produced in a baculovirus expression system and purified by affinity chromatography. […] Protein concentration was quantified by using the Pierce BCA assay using Fraction V bovine serum albumin as the calibrating standard.
(§2) IC50 values were determined in one of two method. One method uses racemic 4-nitrophenyl-trans-2,3-epoxy-3-phenylpropyl carbonate as substrate. […] Assays were performed in triplicate. […] The curve was generated from at least three separate runs, each in triplicate, to obtain the standard deviation (SD) given in Table 1 thru Table 4.

mouse sEH = target: T2, mouse sEH (Mus musculus, UniProt P34914); experiment: as above; format: biochemical; settings: Table 5; spectrometric-based assay; read-out: Mouse sEH IC50
T2 construct: made in house
T2 sequence (P34914 1-554): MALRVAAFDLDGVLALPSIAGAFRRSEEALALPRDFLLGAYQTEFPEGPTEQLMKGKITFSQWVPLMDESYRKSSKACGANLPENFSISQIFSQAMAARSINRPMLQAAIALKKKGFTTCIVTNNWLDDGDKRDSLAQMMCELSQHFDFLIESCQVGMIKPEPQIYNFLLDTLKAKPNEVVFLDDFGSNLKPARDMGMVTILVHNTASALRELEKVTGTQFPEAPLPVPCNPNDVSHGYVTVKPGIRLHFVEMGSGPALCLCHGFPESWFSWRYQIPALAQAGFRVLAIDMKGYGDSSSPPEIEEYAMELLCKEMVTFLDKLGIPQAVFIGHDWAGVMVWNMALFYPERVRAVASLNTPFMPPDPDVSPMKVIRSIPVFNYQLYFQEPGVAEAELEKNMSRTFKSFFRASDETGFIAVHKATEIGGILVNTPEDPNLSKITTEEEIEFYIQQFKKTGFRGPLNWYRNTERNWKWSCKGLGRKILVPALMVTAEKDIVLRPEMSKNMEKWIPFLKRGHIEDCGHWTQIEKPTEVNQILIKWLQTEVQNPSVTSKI
Protocol: as §1, §2

Solubility in water = format: physicochemical
[3] = Microsomal, NADPH dependent metabolic stability in rat hepatic microsomes; format: in vitro ADME; settings: 1 μM, NADPH generating system, P450 dependent
Protocol: FIG. 6 is a graph illustrating the metabolic stabilities of 1-adamantyl-3-dodecyl urea (686) and 1-cyclohexyl-3-dodecyl urea (297) in rat hepatic microsomes. Microsomes were incubated with 1 μM 686 or 297 in the presence of an NADPH generating system. Data are expressed as mean±SD of triplicate experiments.
To evaluate the metabolic stability of these inhibitors, the microsomal and NADPH dependent metabolism of a number of potent sEH inhibitors was evaluated. […] The first step in the metabolic transformation of the n-alkyl to n-alkanoic acid derivatives is an NAPDH dependent process carried out by cytochrome P450 dependent omega hydroxylation in rodent and human hepatic tissue preparations (see FIG. 8). When in vivo metabolism was evaluated, evidence for the beta-oxidation of the alkanoic acid derivatives was also found (see FIG. 9).

[4] = Pharmacokinetics after oral gavage in mice; format: in vivo, male Swiss Webster mice
Protocol: Animals. Male Swiss Webster mice, 6 weeks-old, were obtained from Charles River (CA, USA). After 1-2 week acclimation period, healthy animals were assigned to study groups based on body-weight stratified randomization procedure. The body weight of animals used in all the experiments ranged from 28 g to 38 g.
Administration and measurement. Pharmacokinetic studies in mice used a 5 mg/kg dose of sEH inhibitors dissolved in corn oil and 4% DMSO administered orally. […] Then the samples were centrifuged at 6000 rpm for 5 min, and the ethyl acetate layer was dried under nitrogen. The residue was reconstituted in 25 μL of methanol, and aliquots (5 μL) were injected onto the LC-MS/MS system.
Analysis. Pharmacokinetics analysis was performed using SigmaPlot software system (SPSS science, Chicago, Ill.).

[5] = In vitro metabolism in liver microsomes and S9 fractions; format: in vitro ADME; settings: rat and human microsomes, with NADPH
Text: Both rat and human microsomes were used for the 950 metabolism study.

Row | IC50 (human sEH [1]) [nM] | fold improvement in inhibition of the human enzyme (human sEH [1]) | Solubility in oil (Solubility in oil) | metabolic stability in microsomal preparations [3] | time to reach the maximum concentration [4] [h] | SMILES | other results
1 | 2.1 | about 1.5 fold | 4,000 μg/mL |  |  | CS(=O)(=O)NC(=O)CCCCCCCCCCCNC(=O)NC12CC3CC(CC(C3)C1)C2 [Compound 848, N-[12-(3-Adamantan-1-yl-ureido)dodecanoyl]methanesulfonamide] | IC50 (human sEH [2]): 100 ± 10 nM; IC50 (mouse sEH): 50 ± 10 nM; fold lower water solubility than compound 4 (687) (Solubility in water): 3 fold; solubility (Solubility in water; water, Table 5): 10 µg/mL (≈ 21.3 µM)
2 |  |  |  | stable | 0.5 | O=C(O)CCCCCCCCCCCNC(=O)NC12CC3CC(CC(C3)C1)C2 [Compound 687, 1-(1-adamantyl)-3-(12-dodecanoic acid)urea] | 

Further lines, the compound ahead of its results:

Row | SMILES | IC50 (human sEH [1]) [nM] | fold improvement in inhibition of the human enzyme (human sEH [1]) | Solubility in oil (Solubility in oil) | metabolic stability in microsomal preparations [3] | time to reach the maximum concentration [4] [h] | other results
3 | O=C(CCCCCCCCCCCNC(=O)NC12CC3CC(CC(C3)C1)C2)NS(=O)(=O)c1ccccc1 [Compound 914] | 1.9 | about 1.5 fold | 5,000 μg/mL |  |  | 
4 | CCCCCCCCCCCCNC(=O)NC12CC3CC(CC(C3)C1)C2 [Compound 686, 1-adamantyl-3-dodecylurea, reference compound] |  |  |  | rapidly metabolized | 2 | solubility of adamantyl compound relative to the corresponding cyclohexyl derivative (Solubility in water; 789 vs. 772, 790 vs. 791, 686 vs. 297): approximately 2 ×
5 | CCOCCOCCOCCCCCNC(=O)NC12CC3CC(CC(C3)C1)C2 [Compound 950] |  |  |  |  |  | major metabolite in vitro [5]: hydroxy metabolite was the major metabolite

Reference: patent publication US8476043B2, “Inhibitors for the soluble epoxide hydrolase” (The Regents of the University of California, priority 2004, dated 2013)
